From paper PMC6009956, “Design, synthesis and biological activity of N^4-phenylsubstituted-7H-pyrrolo[2,3-d]pyrimidin-4-amines as dual inhibitors of aurora kinase A and epidermal growth factor receptor kinase” (Journal of Enzyme Inhibition and Medicinal Chemistry, 2017)
Like-named read-outs stand apart in the source and are kept apart here.

Tests used:
aurora A kinase (AURKA) = target: T1, aurora A kinase (AURKA) (Homo sapiens, UniProt O14965); test: ADP-Glo kinase assay, Aurora A; type: biochemical
T1 construct: purchased BPS Bioscience (assay run externally by the vendor)
T1 sequence (O14965 1-403): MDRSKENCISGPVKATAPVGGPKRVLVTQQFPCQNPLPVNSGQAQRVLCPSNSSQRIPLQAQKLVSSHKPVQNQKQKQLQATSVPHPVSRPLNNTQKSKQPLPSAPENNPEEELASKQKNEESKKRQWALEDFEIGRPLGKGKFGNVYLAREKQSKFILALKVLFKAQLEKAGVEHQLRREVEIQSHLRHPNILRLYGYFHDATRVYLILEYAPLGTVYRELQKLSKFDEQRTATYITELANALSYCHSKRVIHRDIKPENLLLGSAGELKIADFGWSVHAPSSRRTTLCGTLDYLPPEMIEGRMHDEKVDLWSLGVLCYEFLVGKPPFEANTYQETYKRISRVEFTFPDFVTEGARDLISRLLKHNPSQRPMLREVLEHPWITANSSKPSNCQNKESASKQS

EGFR = EGFR (Homo sapiens, UniProt P00533); test: ADP-Glo kinase assay, EGFR; type: biochemical; parameters: purchased BPS Bioscience (assay run externally by the vendor)
Sequence of EGFR (P00533 25-1210): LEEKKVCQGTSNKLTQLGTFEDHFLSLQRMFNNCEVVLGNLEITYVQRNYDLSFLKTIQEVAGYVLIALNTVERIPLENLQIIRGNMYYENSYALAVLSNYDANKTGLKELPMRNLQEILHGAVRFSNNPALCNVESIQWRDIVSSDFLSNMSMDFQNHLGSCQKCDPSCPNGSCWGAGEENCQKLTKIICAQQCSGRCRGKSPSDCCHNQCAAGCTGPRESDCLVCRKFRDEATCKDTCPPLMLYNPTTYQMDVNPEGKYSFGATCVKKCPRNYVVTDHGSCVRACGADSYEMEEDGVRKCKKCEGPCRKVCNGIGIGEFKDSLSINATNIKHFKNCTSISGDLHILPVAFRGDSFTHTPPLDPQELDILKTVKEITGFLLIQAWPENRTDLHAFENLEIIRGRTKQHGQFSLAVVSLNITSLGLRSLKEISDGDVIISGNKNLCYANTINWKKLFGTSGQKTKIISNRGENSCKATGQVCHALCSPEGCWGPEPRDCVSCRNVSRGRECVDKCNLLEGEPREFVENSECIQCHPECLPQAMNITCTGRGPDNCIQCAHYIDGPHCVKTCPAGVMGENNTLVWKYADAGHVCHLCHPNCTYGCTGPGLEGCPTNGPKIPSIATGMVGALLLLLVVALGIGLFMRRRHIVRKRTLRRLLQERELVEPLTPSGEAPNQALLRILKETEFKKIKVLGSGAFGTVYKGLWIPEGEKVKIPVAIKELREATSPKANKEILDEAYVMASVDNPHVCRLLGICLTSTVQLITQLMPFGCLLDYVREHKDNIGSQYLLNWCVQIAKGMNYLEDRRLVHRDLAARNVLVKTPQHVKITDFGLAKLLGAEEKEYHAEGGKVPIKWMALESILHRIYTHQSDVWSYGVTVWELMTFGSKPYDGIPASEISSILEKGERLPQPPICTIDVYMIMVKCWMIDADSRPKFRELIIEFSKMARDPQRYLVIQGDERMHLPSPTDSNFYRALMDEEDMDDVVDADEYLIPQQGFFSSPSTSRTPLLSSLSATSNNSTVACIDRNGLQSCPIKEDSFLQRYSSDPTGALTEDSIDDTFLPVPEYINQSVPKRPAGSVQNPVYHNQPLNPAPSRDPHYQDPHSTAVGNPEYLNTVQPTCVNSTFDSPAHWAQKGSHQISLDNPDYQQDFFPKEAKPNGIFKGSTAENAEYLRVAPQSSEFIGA

Clc1ccccc1Nc1ncnc2[nH]ccc12 [Compound 14, N^4-(2-chlorophenyl)-7H-pyrrolo[2,3-d]pyrimidin-4-amine]
IC50 (aurora A kinase (AURKA); 10 µM ATP, triplicate, read-out: AURKA IC50 ± SD): 5.66 ± 0.43 µM
IC50 (aurora A kinase (AURKA); 10 µM ATP/0.2 mg/ml Kemptide, read-out: Aurora A IC50 (dose-response curve, supplement)): 5.7 µM
Aurora A % Activity Set1 (aurora A kinase (AURKA); Log[nM] 0): 97%
Aurora A % Activity Set2 (aurora A kinase (AURKA); Log[nM] 0): 92%
Aurora A % Activity Set3 (aurora A kinase (AURKA); Log[nM] 0): 94%
Aurora A % Activity Set1 (aurora A kinase (AURKA); Log[nM] 1.0): 102%
Aurora A % Activity Set2 (aurora A kinase (AURKA); Log[nM] 1.0): 97%
Aurora A % Activity Set3 (aurora A kinase (AURKA); Log[nM] 1.0): 98%
Aurora A % Activity Set1 (aurora A kinase (AURKA); Log[nM] 1.5): 111%
Aurora A % Activity Set2 (aurora A kinase (AURKA); Log[nM] 1.5): 96%
Aurora A % Activity Set3 (aurora A kinase (AURKA); Log[nM] 1.5): 98%
Aurora A % Activity Set1 (aurora A kinase (AURKA); Log[nM] 2.0): 103%
Aurora A % Activity Set2 (aurora A kinase (AURKA); Log[nM] 2.0): 98%
Aurora A % Activity Set3 (aurora A kinase (AURKA); Log[nM] 2.0): 102%
Aurora A % Activity Set1 (aurora A kinase (AURKA); Log[nM] 2.5): 101%
Aurora A % Activity Set2 (aurora A kinase (AURKA); Log[nM] 2.5): 106%
Aurora A % Activity Set3 (aurora A kinase (AURKA); Log[nM] 2.5): 101%
Aurora A % Activity Set1 (aurora A kinase (AURKA); Log[nM] 3.0): 87%
Aurora A % Activity Set2 (aurora A kinase (AURKA); Log[nM] 3.0): 86%
Aurora A % Activity Set3 (aurora A kinase (AURKA); Log[nM] 3.0): 93%
Aurora A % Activity Set1 (aurora A kinase (AURKA); Log[nM] 3.5): 73%
Aurora A % Activity Set2 (aurora A kinase (AURKA); Log[nM] 3.5): 68%
Aurora A % Activity Set3 (aurora A kinase (AURKA); Log[nM] 3.5): 73%
Aurora A % Activity Set1 (aurora A kinase (AURKA); Log[nM] 4.0): 28%
Aurora A % Activity Set2 (aurora A kinase (AURKA); Log[nM] 4.0): 25%
Aurora A % Activity Set3 (aurora A kinase (AURKA); Log[nM] 4.0): 27%
Aurora A % Activity Set1 (aurora A kinase (AURKA); Log[nM] 4.5): 14%
Aurora A % Activity Set2 (aurora A kinase (AURKA); Log[nM] 4.5): 13%
Aurora A % Activity Set3 (aurora A kinase (AURKA); Log[nM] 4.5): 14%
Aurora A % Activity Set1 (aurora A kinase (AURKA); Log[nM] 5.0): 13%
Aurora A % Activity Set2 (aurora A kinase (AURKA); Log[nM] 5.0): 11%
Aurora A % Activity Set3 (aurora A kinase (AURKA); Log[nM] 5.0): 14%
IC50 (EGFR; 10 µM ATP, triplicate, read-out: EGFR IC50 ± SD): 0.471 ± 0.114 µM
IC50 (EGFR; 10 µM ATP/0.2 mg/ml Poly-Glu-Tyr, read-out: EGFR IC50 (dose-response curve, supplement)): 0.471 µM
EGFR % Activity Set1 (EGFR; Log[nM] 0): 100%
EGFR % Activity Set2 (EGFR; Log[nM] 0): 95%
EGFR % Activity Set3 (EGFR; Log[nM] 0): 94%
EGFR % Activity Set1 (EGFR; Log[nM] 1.0): 105%
EGFR % Activity Set2 (EGFR; Log[nM] 1.0): 90%
EGFR % Activity Set3 (EGFR; Log[nM] 1.0): 96%
EGFR % Activity Set1 (EGFR; Log[nM] 1.5): 108%
EGFR % Activity Set2 (EGFR; Log[nM] 1.5): 83%
EGFR % Activity Set3 (EGFR; Log[nM] 1.5): 93%
EGFR % Activity Set1 (EGFR; Log[nM] 2.0): 89%
EGFR % Activity Set2 (EGFR; Log[nM] 2.0): 75%
EGFR % Activity Set3 (EGFR; Log[nM] 2.0): 84%
EGFR % Activity Set1 (EGFR; Log[nM] 2.5): 62%
EGFR % Activity Set2 (EGFR; Log[nM] 2.5): 53%
EGFR % Activity Set3 (EGFR; Log[nM] 2.5): 57%
EGFR % Activity Set1 (EGFR; Log[nM] 3.0): 36%
EGFR % Activity Set2 (EGFR; Log[nM] 3.0): 27%
EGFR % Activity Set3 (EGFR; Log[nM] 3.0): 33%
EGFR % Activity Set1 (EGFR; Log[nM] 3.5): 16%
EGFR % Activity Set2 (EGFR; Log[nM] 3.5): 14%
EGFR % Activity Set3 (EGFR; Log[nM] 3.5): 16%
EGFR % Activity Set1 (EGFR; Log[nM] 4.0): 8%
EGFR % Activity Set2 (EGFR; Log[nM] 4.0): 6%
EGFR % Activity Set3 (EGFR; Log[nM] 4.0): 7%
EGFR % Activity Set1 (EGFR; Log[nM] 4.5): 4%
EGFR % Activity Set2 (EGFR; Log[nM] 4.5): 3%
EGFR % Activity Set3 (EGFR; Log[nM] 4.5): 3%
EGFR % Activity Set1 (EGFR; Log[nM] 5.0): 5%
EGFR % Activity Set2 (EGFR; Log[nM] 5.0): 4%
EGFR % Activity Set3 (EGFR; Log[nM] 5.0): 4%

CN[C@@H]1C[C@H]2O[C@@](C)([C@@H]1OC)n1c3ccccc3c3c4c(c5c6ccccc6n2c5c31)C(=O)NC4 [Staurosporine, staurosporine, reference compound]
Aurora A % Activity Set1 (aurora A kinase (AURKA); Log[nM] 0): 109%
Aurora A % Activity Set2 (aurora A kinase (AURKA); Log[nM] 0): 103%
Aurora A % Activity Set3 (aurora A kinase (AURKA); Log[nM] 0): 109%
Aurora A % Activity Set1 (aurora A kinase (AURKA); Log[nM] 1.0): 102%
Aurora A % Activity Set2 (aurora A kinase (AURKA); Log[nM] 1.0): 101%
Aurora A % Activity Set3 (aurora A kinase (AURKA); Log[nM] 1.0): 102%
Aurora A % Activity Set1 (aurora A kinase (AURKA); Log[nM] 1.5): 73%
Aurora A % Activity Set2 (aurora A kinase (AURKA); Log[nM] 1.5): 69%
Aurora A % Activity Set3 (aurora A kinase (AURKA); Log[nM] 1.5): 85%
Aurora A % Activity Set2 (aurora A kinase (AURKA); Log[nM] 2.0): 9%
Aurora A % Activity Set1 (aurora A kinase (AURKA); Log[nM] -0.5): 98%
Aurora A % Activity Set2 (aurora A kinase (AURKA); Log[nM] -0.5): 100%
Aurora A % Activity Set3 (aurora A kinase (AURKA); Log[nM] -0.5): 102%
Aurora A % Activity Set1 (aurora A kinase (AURKA); Log[nM] -1.0): 100%
Aurora A % Activity Set2 (aurora A kinase (AURKA); Log[nM] -1.0): 93%
Aurora A % Activity Set3 (aurora A kinase (AURKA); Log[nM] -1.0): 102%
